Experimental data: US20100087493A1, “METHOD FOR IMPROVING THE PHARMACOKINETICS OF DRUGS METABOLIZED BY UGT2B10” (priority 2007, published 2010)
Where two headings read alike, the source gives them in different places.

Legend:
[1] = biological target: T1, Recombinant human UGT2B10 (Homo sapiens, UniProt P36537); assay: biochemical
T1 sequence (P36537 24-528): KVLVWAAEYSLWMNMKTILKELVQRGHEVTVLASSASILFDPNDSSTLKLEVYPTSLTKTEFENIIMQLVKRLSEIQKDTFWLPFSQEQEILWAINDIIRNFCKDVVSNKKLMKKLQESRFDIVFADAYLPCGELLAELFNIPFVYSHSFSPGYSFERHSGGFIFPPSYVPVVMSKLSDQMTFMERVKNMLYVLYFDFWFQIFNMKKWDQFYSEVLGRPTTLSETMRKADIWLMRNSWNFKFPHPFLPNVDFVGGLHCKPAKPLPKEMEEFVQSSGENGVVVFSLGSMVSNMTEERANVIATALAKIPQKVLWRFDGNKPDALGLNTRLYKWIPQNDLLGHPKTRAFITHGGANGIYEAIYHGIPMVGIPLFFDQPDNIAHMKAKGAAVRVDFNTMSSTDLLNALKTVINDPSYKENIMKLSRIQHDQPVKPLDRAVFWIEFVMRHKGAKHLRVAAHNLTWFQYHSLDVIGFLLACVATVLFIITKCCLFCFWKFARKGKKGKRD
Procedure: (§1) For the purpose of identifying a compound which acts as UGT2B10 modulator, recombinant cells that express UGT2B10 are prepared as described above. The cells expressing UGT2B10 are suspended in water and homogenized using known procedures. The incubation mixture is prepared by mixing recombinant UGT2B10 homogenate and uridine-5-diphosphoglucuronic acid (UDP-GA) as a glucuronic acid source in a suitable buffer such as phosphate buffer pH 7.4. […] The reaction is terminated as described above. Following centrifugation, the supernatants are analyzed and quantified for the presence of glucuronidated derivative of the substrate as described above. The UGT2B10 enzyme activity towards the substrate, in the absence and presence of the modulator, is calculated as the amount of glucuronide formed (pmol) divided by incubation time (min) and protein amount (mg/incubation). The effect of the modulator, inhibition or activation, on the enzyme activity towards the substrate is calculated as % enzyme activity at each modulator concentration compared to the enzyme activity measured in the absence of the modulator. IC50, inhibitor concentration that inhibits the activity by 50%, is used as the measure of the inhibitory effect, and the activation effect is calculated as % increase in enzyme activity. […]
(§2) The samples were analyzed by high-performance liquid chromatography-mass spectrometry (HPLC-MS).

UGT1A4 = UGT1A4 (Homo sapiens, UniProt P22310); assay: biochemical
Procedure: as §1, §2

[2] = biological target: T1, Recombinant human UGT2B10
Procedure: For the purpose of identifying compounds which are directly metabolized by UGT2B10, recombinant cells that express UGT2B10 are prepared according to known methods. For example, recombinant UGT2B10 can be expressed in baculovirus-infected insect cells as described e.g. in Kurkela, M. et al., Journal of Biological Chemistry, 278(6), 3536-3544, 2003. The cells expressing UGT2B10 are suspended in water and homogenized using known procedures. Incubation mixture is prepared by mixing recombinant UGT2B10 homogenate and uridine-5-diphospho-glucuronic acid (UDP-GA) as a glucuronic acid source in a suitable buffer such as phosphate buffer pH 7.4. […] The reaction is terminated by protein precipitation, e.g. by addition of trifluoroacetic acid, or acetonitrile if the formed N-glucuronide is expected to be acid-labile, and cooling. Following centrifugation, the supernatants are analysed for the presence of glucuronidated derivative of the test compound, wherein any suitable analyzing method can be used. High pressure liquid chromatography followed by mass spectrometry is the preferred method. The glucuronides are quantified using authentic glucuronide standards or another suitable methods such as substrate depletion. The enzyme activity of UGT2B10 towards the tested compound is calculated as the amount of glucuronide formed (pmol) divided by incubation time (min) and protein amount (mg/incubation). Example 1 of the present application describes a procedure suitable for identifying compounds that are glucuronidated by UGT2B10.
Recombinant human UGT2B10 were produced in baculovirus-infected insect cells and used as cell homogenate after suspending the cells with water. The glucuronidation rates were determined by incubating the substrates, nicotine and cotinine, with the enzyme UGT2B10 using uridine-5′-diphosphoglucuronic acid (UDP-GA) as a cofactor. The reaction mixtures were incubated at +37° C. for 1-2 hours. The samples were analyzed by high-performance liquid chromatography-mass spectrometry (HPLC-MS). The formed glucuronides were quantified using authentic glucuronide standards. The enzyme activity of UGT2B10 towards the tested compound was calculated as pmol glucuronide formed divided by incubation time (min) and protein amount (mg/incubation).

UGT2B10 versus UGT1A4 = biological target: T2, UGT2B10 versus UGT1A4 (Homo sapiens, UniProt P36537); assay: Km of nicotine glucuronidation, UGT2B10; format: in vitro ADME; settings: read-out: Km for UGT2B10 fold less compared to UGT1A4 (selectivity)
T2 construct: made in house; host or cells: baculovirus-infected insect cells (used as cell homogenate)
T2 sequence (P36537 24-528): T1 sequence (P36537 24-528)
From the text: (§3) The reaction is terminated as described above. […] 1.1 (SPSS Inc., Chicago, Ill.).
(§4) 1.1 (SPSS Inc., Chicago, Ill.) software.

in vitro = settings: human, human liver microsomes
Procedure: The reaction is terminated as described above.
The reaction mixtures were incubated at +37° C. for 1-2 hours. The samples were analyzed by high-performance liquid chromatography-mass spectrometry (HPLC-MS).

[3] = substrate: CN1CCCC1c1cccnc1; assay: Km of nicotine glucuronidation, UGT2B10; format: in vitro ADME, human; settings: other: nicotine glucuronidation, 0.002-2 mM, cell homogenate; pH 7.4; 37.0 °C
From the text: as §3, §4

[4] = substrate: CN1CCCC1c1cccnc1; assay: Km of nicotine glucuronidation, UGT1A4; format: in vitro ADME, human; settings: other: nicotine glucuronidation, 0.002-2 mM, microsomal membranes; pH 7.4; 37.0 °C
From the text: as §3, §4

## Cc1cccc(C(C)c2cnc[nH]2)c1C (stereo in doubt) [Levomedetomidine, (S)-4-[1-(2,3-dimethylphenyl)-ethyl]-3H-imidazole]
[1]
  IC50: 13 µM
UGT1A4
  IC50: > 1000 µM

## CN1C(=O)CC[C@H]1c1cccnc1 [Cotinine, cotinine]
[2]; human
  substrate for UGT2B10: substrates for UGT2B10
[2]; human, 2 mM
  UGT2B10 activity: 12.7 pmol/min/mg prot.

## CN1CCCC1c1cccnc1 (stereo not shown) [Nicotine, nicotine]
[2]; in vitro, 2 mM substrate concentration, cell homogenate
  UGT2B10 activity: 2.9 pmol/min/mg prot.
[2]; in vitro, cell homogenate
  substrate for UGT2B10: substrates for UGT2B10
UGT2B10 versus UGT1A4
  selectivity ratio: 8
In vitro
  Km: 330 µM

B1: Recombinant human UGT2B10 (Homo sapiens) (protein)
chain: T1 sequence (P36537 24-528)
notes: made in house; host or cells: baculovirus-infected insect cells (used as cell homogenate)
[3]
  Km: 290 µM

B2: recombinant human UGT1A4 (Homo sapiens) (protein)
chain: GKVLVVPTDGSPWLSMREALRELHARGHQAVVLTPEVNMHIKEEKFFTLTAYAVPWTQKEFDRVTLGYTQGFFETEHLLKRYSRSMAIMNNVSLALHRCCVELLHNEALIRHLNATSFDVVLTDPVNLCGAVLAKYLSIPAVFFWRYIPCDLDFKGTQCPNPSSYIPKLLTTNSDHMTFLQRVKNMLYPLALSYICHTFSAPYASLASELFQREVSVVDLVSYASVWLFRGDFVMDYPRPIMPNMVFIGGINCANGKPLSQEFEAYINASGEHGIVVFSLGSMVSEIPEKKAMAIADALGKIPQTVLWRYTGTRPSNLANNTILVKWLPQNDLLGHPMTRAFITHAGSHGVYESICNGVPMVMMPLFGDQMDNAKRMETKGAGVTLNVLEMTSEDLENALKAVINDKSYKENIMRLSSLHKDRPVEPLDLAVFWVEFVMRHKGAPHLRPAAHDLTWYQYHSLDVIGFLLAVVLTVAFITFKCCAYGYRKCLGKKGRVKKAHKSKTH
notes: made in house; host or cells: baculovirus-infected insect cells (microsomal membranes isolated)
[4]
  Km: 2400 µM
